Reference: US9353051B2, “Antiviral drugs for treatment or prevention of dengue infection” (Siga Technologies Inc., priority 2007, dated 2016)
Read-outs that look alike come from different tables or passages of the source.

Legend:
[1] = system: Modoc; experiment: specificity: activity against Modoc; assay type: cell-based, murine flavivirus; conditions: Orthoflavivirus, in Mus musculus
Experimental: (§1) Select compounds were also tested for more broad spectrum activity against other members of the Flaviviridae family including Modoc, which is a murine flavivirus, as well as Bovine Viral Diarrhea Virus (BVDV), which is a Pestivirus. Since dengue virus is able to replicate in multiple cell lines and to ensure that the activity seen in vero cells is consistent, select compounds were also tested for their effective concentration in a viral yield assay against dengue-2 in C6/36 mosquito cells.

[2] = system: Bovine Viral Diarrhea Virus (BVDV); experiment: specificity: activity against BVDV; assay type: cell-based
Experimental: as §1

[3] = system: Dengue-2 (Strain New Guinea C); experiment: viral yield assay against Dengue-2 in Vero cells; assay type: cell-based; conditions: Dengue virus; for EC90: read-out: EC90 Yield Den-2
How it was run: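 Vero cells infected with dengue-2 at MOI 0.1 were treated with compound (DMSO control) at 37° C., harvested 48 h post infection and titered on Vero cells.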

[4] = system: Den-4; experiment: viral yield assay against Den-4; assay type: cell-based; conditions: Dengue virus
[5] = system: Den-1; experiment: viral yield assay against Den-1; assay type: cell-based; conditions: Dengue virus
[6] = system: Den-3; experiment: viral yield assay against Den-3; assay type: cell-based; conditions: Dengue virus
[7] = Bovine viral diarrhea virus isolates and strains, read-out: Specificity BVDV
[8] = Vero cells, MOI 0.1, harvested 48 hours post infection, read-out: Activity (anti-dengue 2 viral activity, EC50)
[9] = viral yield assay, Vero cells, read-out: EC50 Yield Den-2
[10] = Bovine viral diarrhea virus isolates and strains; read-out: Specificity BVDV

Row | Compound | EC50 [3, 8] | EC50 [3, 9] | EC90 ([3]; viral yield assay, Vero cells) | other results
1 | CCN(CC)S(=O)(=O)c1ccc(OC)c(NC(=O)CC(C)C)c1 [Compound 15, N-(5-Diethylsulfamoyl-2-methoxy-phenyl)-3-methyl-butyramide] | 1 to 10 µM | 2.4 µM | > 100 µM | EC50 [1]: 10.1 µM; EC50 [2, 7]: > 50 µM; EC50 [4]: 1.2 µM; EC90 [4]: 37.2 µM
2 | CCCCC(=O)Nc1cc(S(=O)(=O)N(CC)CC)ccc1OC [Compound 21, Pentanoic acid (5-diethylsulfamoyl-2-methoxy-phenyl)-amide] | 10 to 25 µM | 14.2 µM | 24.1 µM | EC50 [1]: 6 µM; EC50 [2, 7]: > 50 µM; EC50 [4]: 8.2 µM; EC90 [4]: 12 µM
3 | CCN(CC)S(=O)(=O)c1ccc(NC(=O)CN2C(=O)c3cccc4cccc(c34)C2=O)cc1 [Compound 9, N-(4-Diethylsulfamoyl-phenyl)-2-(1,3-dioxo-1H,3H-benzo[de]isoquinolin-2-yl)-acetamide] | 1 to 10 µM | 1.3 µM | 7.3 µM | EC50 [2, 10]: > 50 µM
4 | CCN(CC)S(=O)(=O)c1ccc(C)c(NC(=O)Cn2cnc3cc([N+](=O)[O-])ccc3c2=O)c1 [Compound 12, N-(5-Diethylsulfamoyl-2-methyl-phenyl)-2-(7-nitro-4-oxo-4H-quinazolin-3-yl)-acetamide] | – | 11.1 µM | > 25 µM | EC50 [5]: > 25 µM; EC90 [5]: > 25 µM; EC50 [1]: > 25 µM; EC50 [6]: 2.9 µM; EC90 [6]: > 25 µM; EC50 [2, 7]: > 50 µM; EC50 ([3]; Vero, 48 h, read-out: Activity (anti-dengue 2 viral activity, EC50)): 1 to 10 µM; EC50 [4]: 5.2 µM; EC90 [4]: 14.6 µM
5 | CC(C)N(C)S(=O)(=O)c1ccc(NC(=O)Cn2cnc3ccc(Cl)cc3c2=O)cc1 [Compound 6, 2-(6-Chloro-4-oxo-4H-quinazolin-3-yl)-N-[4-(isopropyl-methyl-sulfamoyl)-phenyl]-acetamide] | 1 to 10 µM | 1.8 µM | 43.2 µM | EC50 [2, 10]: 64 µM
6 | CCN(CC)S(=O)(=O)c1ccc(NC(=O)Cn2[nH]c(=O)c3ccccc3c2=O)cc1 [Compound 8, N-(4-Diethylsulfamoyl-phenyl)-2-(1,4-dioxo-3,4-dihydro-1H-phthalazin-2-yl)-acetamide] | 1 to 10 µM | 2.8 µM | 25.6 µM | EC50 [2, 10]: > 50 µM
7 | CCN(CC)S(=O)(=O)c1ccc(NC(=O)Cn2cnc3sc(C)c(C)c3c2=O)cc1 [Compound 10, N-(4-Diethylsulfamoyl-phenyl)-2-(5,6-dimethyl-4-oxo-4H-thieno[2,3-d]pyrimidin-3-yl)-acetamide] | 1 to 10 µM | 1.25 µM | > 50 µM | –
8 | CCN(CC)S(=O)(=O)c1ccc(NC(=O)Cn2cnc3ccsc3c2=O)cc1 [Compound 22, N-(4-Diethylsulfamoyl-phenyl)-2-(4-oxo-4H-thieno[3,2-d]pyrimidin-3-yl)-acetamide] | 10 to 25 µM | – | – | –
9 | CCN(CC)S(=O)(=O)c1ccc(NC(=O)CNC(=O)c2ccc(S(=O)(=O)NC(C)C)cc2)cc1 [Compound 73, N-[(4-Diethylsulfamoyl-phenylcarbamoyl)-methyl]-4-isopropylsulfamoyl-benzamide] | > 25 µM | – | – | –
10 | CCCC(=O)Nc1cc(S(=O)(=O)N(CC)CC)ccc1OC [Compound 14, N-(5-Diethylsulfamoyl-2-methoxy-phenyl)-butyramide] | 1 to 10 µM | 3.6 µM | 27.5 µM | EC50 [5]: > 25 µM; EC90 [5]: > 25 µM; EC50 [1]: > 25 µM; EC50 [6]: 4.2 µM; EC90 [6]: 14.9 µM; EC50 [2, 10]: > 50 µM; EC50 [4]: 4.8 µM; EC90 [4]: 11.1 µM
11 | CC(C)N(C)S(=O)(=O)c1ccc(NC(=O)Cn2nnc3ccccc3c2=O)cc1 [Compound 86, N-[4-(Isopropyl-methyl-sulfamoyl)-phenyl]-2-(4-oxo-4H-benzo[d][1,2,3]triazin-3-yl)-acetamide] | > 25 µM | – | – | –
12 | O=C(Cn1nnc2ccccc2c1=O)Nc1ccc(S(=O)(=O)N2CCCC2)cc1 [Compound 113, 2-(4-Oxo-4H-benzo[d][1,2,3]triazin-3-yl)-N-[4-(pyrrolidine-1-sulfonyl)-phenyl]-acetamide] | > 25 µM | – | – | –
13 | Cc1ccc(S(=O)(=O)Nc2ccc3ncn(Cc4ccccc4)c(=O)c3c2)cc1 [Compound 99, N-(3-Benzyl-4-oxo-3,4-dihydro-quinazolin-6-yl)-4-methyl-benzenesulfonamide] | > 25 µM | – | – | –
14 | COC(=O)CNS(=O)(=O)c1ccc(NC(=O)Cn2cnc3ccccc3c2=O)cc1 [Compound 54, {4-[2-(4-Oxo-4H-quinazolin-3-yl)-acetylamino]-benzene-sulfonylamino}-acetic acid methyl ester] | > 25 µM | – | – | –
15 | CCN(CC(=O)NCCc1ccc(S(N)(=O)=O)cc1)Cc1nc2cc(OC)c(OC)cc2c(=O)[nH]1 [Compound 118, 2-[(6,7-Dimethoxy-4-oxo-3,4-dihydro-quinazolin-2-ylmethyl)-ethyl-amino]-N-[2-(4-sulfamoyl-phenyl)-ethyl]-acetamide] | > 25 µM | – | – | –
16 | CC(NS(=O)(=O)c1ccc(NC(=O)Cn2cnc3ccccc3c2=O)cc1)C1CC2CCC1C2 (centres unmarked) [Compound 43, N-[4-(1-Bicyclo[2.2.1]hept-2-yl-ethylsulfamoyl)-phenyl]-2-(4-oxo-4H-quinazolin-3-yl)-acetamide] | > 25 µM | – | – | –
17 | CCN(CC)S(=O)(=O)c1ccc(NC(=O)Cn2cnc3c2c(=O)n(C)c(=O)n3C)cc1 [Compound 4, N-(4-Diethylsulfamoyl-phenyl)-2-(1,3-dimethyl-2,6-dioxo-1,2,3,6-tetrahydro-purin-7-yl)-acetamide] | 1 to 10 µM | 7.8 µM | 8.9 µM | EC50 [1]: > 25 µM; EC50 [6]: 13.5 µM; EC90 [6]: 22.6 µM; EC50 [2, 10]: > 50 µM; EC50 [4]: 4.3 µM; EC90 [4]: 22.7 µM
18 | Cc1ccc(-n2c(CCC(=O)NCc3ccc(S(N)(=O)=O)cc3)nc3ccccc3c2=O)cc1 [Compound 137, 3-(4-Oxo-3-p-tolyl-3,4-dihydro-quinazolin-2-yl)-N-(4-sulfamoyl-benzyl)-propionamide] | > 25 µM | – | – | –
19 | CC(C)N(C)S(=O)(=O)c1ccc(NC(=O)Cn2cnc3cc(F)ccc3c2=O)cc1 [Compound 7, 2-(7-Fluoro-4-oxo-4H-quinazolin-3-yl)-N-[4-(isopropyl-methyl-sulfamoyl)-phenyl]-acetamide] | 1 to 10 µM | 4.6 µM | > 50 µM | EC50 [2, 10]: > 50 µM
20 | CCN(CC)S(=O)(=O)c1ccc(OC)c(NC(=O)Cn2cnc3ccccc3c2=O)c1 [Compound 91, N-(5-Diethylsulfamoyl-2-methoxy-phenyl)-2-(4-oxo-4H-quinazolin-3-yl)-acetamide] | > 25 µM | – | – | –
21 | CCN(CC)S(=O)(=O)c1ccc(OC)c(NC(=O)Cc2ccccc2)c1 [Compound 16, N-(5-Diethylsulfamoyl-2-methoxy-phenyl)-2-phenyl-acetamide] | 1 to 10 µM | 5.8 µM | 10.3 µM | EC50 [1]: 3.6 µM; EC50 [2, 7]: > 50 µM; EC50 [4]: 2.1 µM; EC90 [4]: 6.4 µM
22 | CC1CCCCN1S(=O)(=O)c1ccc(NC(=O)Cn2cnc3ccccc3c2=O)cc1 (centres unmarked) [Compound 37, N-[4-(2-Methyl-piperidine-1-sulfonyl)-phenyl]-2-(4-oxo-4H-quinazolin-3-yl)-acetamide] | > 25 µM | – | – | –
23 | NS(=O)(=O)c1ccc(NC(=O)COC(=O)Cn2cnc3ccccc3c2=O)cc1 [Compound 111, (4-Oxo-4H-quinazolin-3-yl)-acetic acid (4-sulfamoyl-phenylcarbamoyl)-methyl ester] | > 25 µM | – | – | –
